Where “and” joins values, the source holds several entries; their conditions need not be identical. Identical values can stand only once.
| melting point | SMILES |
| --- | --- |
| 129 °C | Nc1cccc2cnccc12 [5-aminoisoquinoline] |
| 197 °C | O=C1CCC(C(=O)O)=NN1 [1,4,5,6-tetrahydro-6-oxopyridazine-3-carboxylic acid] |
| -84 °C | CCOC(C)=O [Ethyl acetate] |
| 166 °C | O=C(NCCCCc1ccccc1)c1cc([N+](=O)[O-])cc([N+](=O)[O-])c1 [benzamide, 3,5-dinitro-N-(4-phenylbutyl)-] |
| 205 °C | NCCCCCC(=O)O [Aminocaproic Acid] |
| 100 °C | c1ccc2c(c1)ccc1ccccc12 [phenanthrene] |
| 132 °C | ON=Cc1ccncc1 [pyridine-4-carboxaldoxime] |
| 142 °C | NC(=O)c1ccccc1O [salicylamide] |
| 145 °C | O=[N+]([O-])c1ccc(-c2ccc([N+](=O)[O-])cc2Cl)cc1 [2-chloro-4,4'-dinitrobiphenyl] |
| 122 °C | c1ccc(-c2nc3ccccc3nc2-c2ccc3ccccc3c2)cc1 [2-naphthalen-2-yl-3-phenylquinoxaline] |
| 175 °C | COc1cccc2oc(-c3ccccc3)c(O)c(=O)c12 [3-hydroxy-5-methoxyflavone] |
| -31 °C | C=Cc1ccccc1 [styrene] |
| 184 °C | Cc1cc[n+]([O-])cc1 [4-picoline n-oxide] |
| -59 °C | CCCCC(CC)C(=O)O (stereo unspecified) [2-ethylhexanoic acid] |
| 132 °C | O=[N+]([O-])c1cc([N+](=O)[O-])c2ccccc2c1O [2,4-dinitro-1-naphthol] |
| 203 °C | OB(O)c1ccc(F)c(F)c1F [2,3,4-trifluorobenzeneboronic acid] |
| 93 °C | N#Cc1cc(F)c(N)cc1F [4-amino-2,5-difluorobenzonitrile] |
| 144 °C | Nc1cc([N+](=O)[O-])ccc1O [2-amino-4-nitrophenol] |
| -30 °C | CCCCCCCCCC [N-decane] |
| 20 °C | [2H]OC([2H])([2H])C([2H])(O[2H])C([2H])([2H])O[2H] [(~2~H_5_)Propane-1,2,3-(~2~H_3_)triol] |
| 7 °C | Cc1ccccc1Cc1ccccc1 [2-methyldiphenylmethane] |
| -58 °C | CCOC(=O)C(C)=O [ethyl pyruvate] |
| 169 °C | Oc1c(F)c(F)c(O)c(F)c1F [2,3,5,6-tetrafluorohydroquinone] |
| 161 °C | Cc1ccc(N)cc1O [5-Amino-o-cresol] |
| 174 °C | [O-][n+]1ccc(OCc2ccccc2)cc1 [4-benzyloxypyridine n-oxide] |
| 204 °C | CC(C)(S)[C@@H](N)C(=O)O [penicillamine] |

| melting point | SMILES |
| --- | --- |
| 163 °C | CCc1cc(C(N)=S)ccn1 [Ethionamide] |
| 166 °C | COc1ccc2nc(N)sc2c1 [6-Methoxy-1,3-benzothiazol-2-amine] |
| 174 °C | O=C(O)c1cc(Cl)ccc1O [5-chlorosalicylic acid] |
| -62 °C | CC1=CCC2CC1C2(C)C (stereo unspecified) [a-pinene] |
| 14 °C | CCC(c1ccccc1)c1ccccc1 [1,1-diphenylpropane] |
| 149 °C | Cc1ccc(/C=C(\C(N)=O)c2nc3ccccc3s2)cc1 |
| 171 °C | NNC(=O)c1ccncc1 [Isonicotinohydrazide] |
| 128 °C | CN(C)c1ccc(C2CNCCN2)cc1 (stereo unspecified) [N,N-dimethyl-4-(2-piperazinyl)aniline] |
| 51.5 °C | c1ccc(CCc2ccccc2)cc1 [1,2-Diphenylethane] |
| -53 °C | [2H]C([2H])([2H])C([2H])([2H])C([2H])([2H])C([2H])([2H])C([2H])([2H])C([2H])([2H])C([2H])([2H])C([2H])([2H])C([2H])([2H])[2H] [(~2~H_20_)Nonane] |
| -142 °C | CF [fluoromethane] |
| 244 °C | COc1cc([C@@H]2c3cc4c(cc3[C@@H](O[C@@H]3O[C@@H]5CO[C@@H](C)O[C@H]5[C@H](O)[C@H]3O)[C@H]3COC(=O)[C@H]23)OCO4)cc(OC)c1O [Etoposide] |
| -31 °C | C=Cc1ccccc1 [Styrene] |
| 38 °C | Cc1ccc[n+]([O-])c1 [3-picoline n-oxide] |
| 254 °C | Cc1cnc(NC(=O)C2=C(O)c3ccccc3S(=O)(=O)N2C)s1 [Meloxicam] |
| 198 °C | CN1C(C(=O)Nc2ccccn2)=C(O)c2ccccc2S1(=O)=O [piroxicam] |
| 190 °C | Cc1nnc(SCC2=C(C(=O)O)N3C(=O)[C@@H](NC(=O)Cn4cnnn4)[C@H]3SC2)s1 [cefazolin] |
| 156 °C | CSC(SC)=C1CCCC(=C(SC)SC)C1=C(C#N)C#N |
| 120 °C | ON(/C=C/c1ccccc1)c1ccccc1 [N-hydroxy-N-[(E)-2-phenylethenyl]aniline] |
| 32 °C | O=S(=O)(Cl)c1cc(Cl)cc(Cl)c1 [3,5-dichlorobenzenesulfonyl chloride] |
| -49 °C | CCCCN [1-aminobutane] |
| 134 °C | CC(C)(C)OC(=O)N1CCC[C@H]1C(=O)O [N-boc-L-proline] |
| 142 °C | O=C4\C=C2/[C@]([C@H]1CC[C@@]3([C@@H](C(=O)CO)CC[C@H]3[C@@H]1CC2)C)(C)CC4 [deoxycorticosterone] |
| 109 °C | c1ccc2nc3ccccc3cc2c1 [acridine] |
| -90 °C | CC(C)I [2-iodopropane] |
| 57 °C | c1ccc2c(c1)Oc1ccccc1S2 [phenoxathiin] |

| melting point | SMILES |
| --- | --- |
| 69 °C | Cc1ccc(S(=O)(=O)Cl)cc1 [p-toluenesulfonyl chloride] |
| 22 °C | C/C=C/c1ccc(OC)cc1 [trans-anethole] |
| 88.5 °C | CC(C)(C)OC(=O)NCC(=O)O [boc-glycine] |
| 121 °C | c1ccc(P(CP(c2ccccc2)c2ccccc2)c2ccccc2)cc1 [Methylenebis(diphenylphosphine)] |
| -43 °C | CCCCCCC=O [Heptanal] |
| 176 °C | CC(=O)c1ccc(O)c(C(F)(F)F)c1 [4'-hydroxy-3'-(trifluoromethyl)acetophenone] |
| -105 °C | COCOC [Dimethoxymethane] |
| -30 °C and -29.8 °C | CCCCCCCCCC [decane] |
| 185 °C | Cc1cc[n+]([O-])cc1C#N [4-methylpyridine-3-carbonitrile 1-oxide] |
| -63 °C | ClC(Cl)Cl [Chloroform] |
| 290 °C | O=C(O)CCc1ccc(C(=O)O)cc1 [3-(4-carboxyphenyl)propionic acid] |
| 9 °C | CCCCCCCCCCCCCCCCCl [1-chlorohexadecane] |
| 4 °C | c1ccc(COCc2ccccc2)cc1 [dibenzyl ether] |
| 238 °C | OB(O)c1cccc(Cl)c1Cl [2,3-dichlorobenzeneboronic acid] |
| 164 °C | O=C(/C=C/c1ccc([N+](=O)[O-])cc1)c1ccccc1 [4-nitrochalcone] |
| 67 °C | CCOC(=O)C(=O)Nc1ccccc1 [ethyl oxanilate] |
| 10 °C | Cc1ccc(C)c(Br)c1 [2-bromo-p-xylene] |
| -27 °C | Cc1cccc(I)c1 [3-iodotoluene] |
| 10 °C | NCCN [ethylenediamine] |
| -113 °C | CC/C=C/CC [trans-3-hexene] |
| 207 °C | Clc1cc(Cl)cc(-c2nnn[nH]2)c1 [5-(3,5-dichlorophenyl)-1h-tetrazole] |
| 115 °C | O=C(O)c1ccccc1-c1ccccc1 [o-phenylbenzoic_acid] |
| -46 °C | CC(C)C(=O)O [2-methylpropanoic_acid] |
| 3 °C | COc1ccccc1Br [2-bromoanisole] |
| 189 °C | Nc1ccc(O)cc1 [p-aminophenol] |
| -33 °C | CC1(C)CCCCC1 [1,1-dimethylcyclohexane] |

| SMILES | melting point |
| --- | --- |
| c1cc(OCC2CO2)cc(OCC2CO2)c1 (stereo unspecified) [resorcinol diglycidyl ether] | 34 °C |
| O=C(O)c1cc(Cl)ccc1Cl [2,5-dichlorobenzoic acid] | 153 °C |
| O=C(Cl)c1ccco1 [2-furoyl chloride] | -1 °C |
| O=C(O)COc1ccccc1 [phenoxyacetic acid] | 100 °C |
| CCCC(C)(COC(N)=O)COC(N)=O [meprobamate] | 105 °C |
| Cn1nnnc1S [5-mercapto-1-methyltetrazole] | 127 °C |
| N#Cc1cccc(C(=O)O)c1 [3-cyanobenzoic_acid] | 223 °C |
| Nc1c(Br)cc(Br)c2c1C(=O)c1ccccc1C2=O [1-Amino-2,4-dibromo-9,10-anthraquinone] | 226 °C |
| COc1ccc2c3c1O[C@H]1[C@@H](O)C=C[C@H]4[C@@H](C2)N(C)CC[C@@]341 [codeine] | 158 °C |
| CCC(C)=O [2-butanone] | -86 °C |
| CN(C)C(=O)Nc1ccc(Cl)cc1 [monuron] | 172 °C and 174 °C |
| [O-][I+3]([O-])([O-])O [periodic acid] | 128 °C |
| O=C1C(=O)c2ccccc2-c2ccccc21 [Phenanthrene-9,10-dione] | 210 °C |
| CSSC [dimethyl disulfide] | -85 °C |
| N#CCC(=O)c1ccccc1 [Cyanoacetophenone] | 83 °C |
| c1ccc(-c2ccccc2-c2ccccc2)cc1 [o-terphenyl] | 57 °C |
| CCC(=O)OC(=O)CC [Propanoic anhydride] | -45 °C |
| N#CN [cyanamide] | 45 °C |
| O=C(O)CC[N+](=O)[O-] [3-Nitropropanoic acid] | 64 °C |
| CCC1(CCC(C)C)C(=O)NC(=O)NC1=O [amobarbital] | 157 °C |
| c1ccc(N2CCNCC2)cc1 [1-phenylpiperazine] | 18 °C |
| O=S(=O)(O)F [Sulfurofluoridic acid] | -87.3 °C |
| Cc1cccc([N+](=O)[O-])c1 [3-nitrotoluene] | 16 °C |
| O=[N+]([O-])c1ccc(Cl)cc1 [1-chloro-4-nitrobenzene] | 84 °C |
| CP(=O)(O)CC[C@@H](N)C(=O)O [2-Amino-4-(Hydroxymethyl-Phosphinyl)Butanoic Acid] | 230 °C |
| CC(=O)Nc1ccc(Cl)cc1 [4'-chloroacetanilide] | 179 °C |
| O=[N+]([O-])c1ccccc1O [2-nitrophenol] | 44.8 °C and 44.5 °C and 44 °C |
| COC(=O)c1ccccc1N [methyl anthranilate] | 24 °C |
